The values that follow come from DBAASP.

Some test systems named below: Escherichia coli ESBL; Pseudomonas aeruginosa; Staphylococcus aureus MR; Bacillus subtilis 168; Escherichia coli ML-35p.
Assay in all cases: ≥ marks a high value that may be exact or a test limit, other limits are often not marked, values filed in µg/mL are converted to µM
In assay [1] the test system is Staphylococcus aureus NCTC 12493.
The test system of assay [2] is Klebsiella pneumoniae ATCC 43816.
For assay [3], the system named is Pseudomonas aeruginosa ATCC 27853.
The test system of assay [4] is Candida albicans NCTC 1467.
For assay [5], the system named is Escherichia coli NCTC 10418.
Assay [6] has as its system Staphylococcus aureus NCTC 10788.
The subject of assay [7] is Staphylococcus aureus Xen36.
Assay [8] has as its system Escherichia coli ATCC 25922.
In assay [9] the test system is Staphylococcus aureus ATCC 25923.
The test system of assay [10] is Staphylococcus aureus ATCC 29213.
For assay [11], the system named is Staphylococcus aureus ATCC BAA-1696.
Assay [12] relates to Pseudomonas aeruginosa PAO1.
In assay [13] the test system is Escherichia coli DH5alpha.
Assay [14] has as its system Staphylococcus aureus USA 300.
The subject of assay [15] is Mycobacterium tuberculosis H37Ra.
The subject of assay [16] is Staphylococcus aureus NRS 72.
Assay [17] relates to Klebsiella pneumoniae ESBL 344/17.
The test system of assay [18] is Staphylococcus aureus SG511.
In assay [19] the test system is Acinetobacter baumannii 7226/16.
In assay [20] the test system is Staphylococcus aureus 1399/17.
The subject of assay [21] is Escherichia coli ESBL 521/17.
Assay [22] concerns Pseudomonas aeruginosa 522/17.
The test system of assay [23] is Staphylococcus aureus ATCC 33591.
For assay [24], the system named is Saccharomyces cerevisiae NBRC 10217.
Assay [25] concerns Escherichia coli NBRC 14237.
The test system of assay [26] is Staphylococcus aureus NBRC 12732.
Assay [27] concerns Candida viswanathii NBRC 10321.
In assay [28] the test system is Micrococcus luteus NBRC 3333.
The test system of assay [29] is Aspergillus oryzae NBRC 100959.
In assay [30] the test system is Escherichia coli NBRC 3972.
Assay [31] has as its system Staphylococcus epidermidis NBRC 12993.

≈ marks a conversion by molar mass, not a printed value.

For `CC[C@H](C)[C@@H]1NC(=O)[C@H](CC(C)C)NC(=O)[C@@H](NC(=O)[C@H](Cc2ccccc2)NC(=O)[C@H](CC(C)C)NC(=O)[C@H](CCCCN)NC(=O)[C@@H]2CCCN2C(=O)[C@H](CC(C)C)NC(=O)[C@@H](NC(=O)[C@H](CCCCN)NC(=O)[C@@H](NC(=O)[C@@H](NC(=O)[C@H](C)NC(=O)CNC(=O)[C@H](CC(C)C)NC(=O)[C@H](C)NC(=O)[C@@H](N)Cc2ccccc2)C(C)C)[C@@H](C)O)C(C)C)CSSC[C@@H](C(=O)O)NC(=O)[C@H](CCCCN)NC(=O)[C@H](CCCN=C(N)N)NC(=O)[C@H]([C@@H](C)O)NC1=O` [FALGAVTKVLPKLFCLITRKC], the minimal inhibitory concentration (MIC) in assay [1] was 8 µM (≈ 18.6 µg/mL); in assay [2], no less than 64 µM; in assay [3], 64 µM (≈ 148 µg/mL); in assay [4], 16 µM (≈ 37.1 µg/mL); in assay [5] it was 16 µM (≈ 37.1 µg/mL); in assay [6] it was 4 µM (≈ 9.28 µg/mL).

With `NCCCC[C@H](NC(=O)CNC(=O)[C@H](CCCCN)NC(=O)[C@H](CC(N)=O)NC(=O)[C@H](CCCCN)NC(=O)[C@H](Cc1cnc[nH]1)NC(=O)[C@H](CCCCN)NC(=O)CN)C(=O)N[C@@H](CCCCN)C(=O)N[C@@H](CC(N)=O)C(=O)NCC(=O)N[C@@H](CCCCN)C(=O)N[C@@H](Cc1cnc[nH]1)C(=O)N[C@@H](CC(N)=O)C(=O)NCC(=O)N[C@@H](Cc1c[nH]c2ccccc12)C(=O)N[C@@H](CCCCN)C(=O)N[C@@H](Cc1c[nH]c2ccccc12)C(=O)N[C@@H](Cc1c[nH]c2ccccc12)C(=O)N[C@@H](Cc1c[nH]c2ccccc12)C(=O)O` [GKHKNKGKKNGKHNGWKWWW], the MIC in assay [7] is 3.27 µM (≈ 8.19 µg/mL); in [8], 3.19 µM (≈ 8 µg/mL); in [9] it was 1.6 µM (≈ 4 µg/mL); in the assay with Escherichia coli ESBL, 2.26 µM (≈ 5.66 µg/mL); in assay [10], greater than 3.27 µM; in assay [3], 3.19 µM (≈ 8 µg/mL). The results for the MIC (in the assay with Pseudomonas aeruginosa; in assay [11]; in the assay on Staphylococcus aureus MR) were 6.39 µM (≈ 16 µg/mL), 3.27 µM (≈ 8.19 µg/mL) and 1.6 µM (≈ 4 µg/mL), respectively.

For `CC(C)C[C@H](NC(=O)[C@H](Cc1cnc[nH]1)NC(=O)[C@H](CO)NC(=O)[C@H](CC(N)=O)NC(=O)[C@H](CCCCN)NC(=O)[C@H](CCCCN)NC(=O)[C@H](Cc1ccccc1)NC(=O)[C@H](Cc1c[nH]c2ccccc12)NC(=O)[C@H](CCCCN)NC(=O)CNC(=O)[C@H](Cc1c[nH]c2ccccc12)NC(=O)[C@@H](N)CCCN=C(N)N)C(=O)N[C@@H](CO)C(N)=O` [RWGKWFKKNSHLS], the MIC in assay [12] was greater than 80 µM; in assay [13], no less than 80 µM; against Bacillus subtilis 168 it was no less than 80 µM; in assay [14], no less than 80 µM; in [15] it was no less than 80 µM; in assay [16], no less than 80 µM.

For the compound `CC[C@H](C)[C@H](NC(=O)[C@H](CCCN=C(N)N)NC(=O)[C@@H](NC(=O)[C@@H]1CCCN1C(=O)[C@@H]1CCCN1C(=O)[C@H](CCCN=C(N)N)NC(=O)[C@H](CCCN=C(N)N)NC(=O)[C@H](Cc1ccccc1)NC(=O)[C@@H]1CCCN1C(=O)[C@H](CC(C)C)NC(=O)[C@H](CCCN=C(N)N)NC(=O)[C@H](Cc1ccccc1)NC(=O)[C@@H](N)CCCN=C(N)N)[C@@H](C)CC)C(=O)N[C@@H](Cc1cnc[nH]1)C(N)=O` [RFRLPFRRPPIRIH], the MIC in [17] was 16 µM (≈ 29.8 µg/mL); in [18] it was 2 µM (≈ 3.72 µg/mL); in assay [19], 16 µM (≈ 29.8 µg/mL); in [20], no less than 128 µM; in assay [21] it was 16 µM (≈ 29.8 µg/mL); in [22], no less than 64 µM. Also, the MIC in assay [23] is 16 µM (≈ 29.8 µg/mL); against Escherichia coli ML-35p, 8 µM (≈ 14.9 µg/mL).

Regarding `CC[C@H](C)[C@H](NC(=O)[C@H](CCCN=C(N)N)NC(=O)[C@H](CCCN=C(N)N)NC(=O)[C@H](CCCN=C(N)N)NC(=O)[C@H](CO)NC(=O)[C@H](Cc1ccccc1)NC(=O)[C@H](CC(=O)O)NC(=O)[C@H](Cc1ccccc1)NC(=O)[C@H](CCCN=C(N)N)NC(=O)[C@H](CCCN=C(N)N)NC(=O)[C@H](CCCN=C(N)N)NC(=O)[C@@H](N)CO)C(=O)N[C@@H](Cc1ccc(O)cc1)C(=O)N[C@H](C(=O)N[C@@H](C)C(=O)N[C@@H](CCCN=C(N)N)C(=O)N[C@@H](CCCN=C(N)N)C(=O)N[C@@H](CCCN=C(N)N)C(=O)N[C@@H](CO)C(=O)N[C@@H](CC(C)C)C(=O)N[C@@H](C)C(=O)N[C@@H](Cc1ccccc1)C(=O)N[C@@H](C)C(=O)N[C@@H](Cc1cnc[nH]1)C(=O)N[C@@H](CCCN=C(N)N)C(=O)N[C@@H](CCCN=C(N)N)C(=O)N[C@@H](CCCN=C(N)N)C(=O)O)C(C)C` [SRRRFDFSRRRIYVARRRSLAFAHRRR], the MIC in assay [24], in assay [25] and in assay [26] was 6.25 µM (≈ 22.2 µg/mL) each time.

On to `CSCC[C@H](NC(=O)[C@H](CCCCN)NC(=O)[C@H](Cc1c[nH]c2ccccc12)NC(=O)[C@H](CCCN=C(N)N)NC(=O)[C@H](CCCCN)NC(=O)[C@H](Cc1ccccc1)NC(=O)[C@H](CC(C)C)NC(=O)[C@H](CCCN=C(N)N)NC(=O)[C@H](CCCCN)NC(=O)[C@@H](NC(=O)[C@H](CCCCN)NC(=O)[C@@H](N)CCCN=C(N)N)C(C)C)C(=O)O` [RKVKRLFKRWKM], for which the MIC in assay [27] is no less than 59.7 µM; in assay [28], no less than 59.7 µM; in assay [29], no less than 59.7 µM; in assay [30] it was no less than 477 µM; in assay [31] it was 29.8 µM (≈ 50 µg/mL).
